ChEMBL document CHEMBL1201862, “PubChem BioAssay data set” (2004)
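A five-concentration, 48-hour dose response in 96-well plates underlies each endpoint, interpolated linearly between surrounding concentrations. Here, GI50 denotes the concentration required for 50% inhibition of growth.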 Activity calls are given as the source filed them. Cut-off read from the data, not from the text of the source: active = GI50 up to about 1.1 µM and inactive = higher.

Experiments:
Assay in all cases: inhibition of tumour cell growth, NCI panel, 48 h
COLO 205 = tested on: COLO 205
DU-145 = tested on: DU-145
HCT-15 = tested on: HCT-15
Hs-578T = tested on: Hs-578T
IGROV-1 = tested on: IGROV-1
NCI-H522 = tested on: NCI-H522
OVCAR-3 = tested on: OVCAR-3
RPMI-8226 = tested on: RPMI-8226
RXF 393 = tested on: RXF 393
SF-268 = tested on: SF-268
SK-MEL-5 = tested on: SK-MEL-5
SN12C = tested on: SN12C
SW-620 = tested on: SW-620
TK-10 = tested on: TK-10
CAKI-1 = tested on: CAKI-1
HL-60 = tested on: HL-60
KM12 = tested on: KM12
MDA-N = tested on: MDA-N
SR = tested on: SR

SMILES	GI50 (COLO 205)	GI50 (DU-145)	GI50 (HCT-15) [µM]	GI50 (Hs-578T)	GI50 (IGROV-1)	GI50 (NCI-H522)	GI50 (OVCAR-3)	GI50 (RPMI-8226)	GI50 (RXF 393)	GI50 (SF-268)	GI50 (SK-MEL-5)	GI50 (SN12C)	GI50 (SW-620)	GI50 (TK-10)	GI50 (CAKI-1)	GI50 (HL-60)	GI50 (KM12)	GI50 (MDA-N)	GI50 (SR)
O=C(OCc1ccccc1CN1CCOCC1)c1ccc(Br)cc1	74.6 µM (inactive)	> 100 µM (inactive)	57.1	69.3 µM (inactive)	47.8 µM (inactive)	28.7 µM (inactive)	31.8 µM (inactive)	22.1 µM (inactive)	> 100 µM (inactive)	> 100 µM (inactive)	12.2 µM (inactive)	76 µM (inactive)	> 100 µM (inactive)	> 100 µM (inactive)					
CN(C)c1ccc(/C=C2\N=C(c3ccccc3)N(c3nc4ccc(Sc5ccccc5)cc4[nH]3)C2=O)cc1	21.6 µM (inactive)	77.4 µM (inactive)	36.5	35.2 µM (inactive)	61.5 µM (inactive)	29.2 µM (inactive)	27.4 µM (inactive)	24.8 µM (inactive)	50.2 µM (inactive)	43.8 µM (inactive)	32.4 µM (inactive)	45.4 µM (inactive)	34.6 µM (inactive)	23.5 µM (inactive)	35.4 µM (inactive)	6.61 µM (inactive)	27.8 µM (inactive)		
O=S(=O)(NC1CCCCC1)c1ccc2c(c1)OCCOCCOCCOCCO2	> 100 µM (inactive)	> 100 µM (inactive)	> 100	> 100 µM (inactive)	> 100 µM (inactive)	> 100 µM (inactive)		> 100 µM (inactive)		> 100 µM (inactive)	> 100 µM (inactive)	> 100 µM (inactive)	> 100 µM (inactive)	> 100 µM (inactive)	> 100 µM (inactive)	> 100 µM (inactive)	> 100 µM (inactive)	> 100 µM (inactive)	> 100 µM (inactive)
O=C(/C=C/c1ccc(Cl)cc1)c1cccs1	19.3 µM (inactive)	40.6 µM (inactive)	17.5	36 µM (inactive)	29.9 µM (inactive)			3.1 µM (inactive)		29.7 µM (inactive)	18.2 µM (inactive)	16.5 µM (inactive)	12.9 µM (inactive)	20.8 µM (inactive)	24 µM (inactive)	7.19 µM (inactive)	13.9 µM (inactive)	16.3 µM (inactive)	6.24 µM (inactive)
S=C(Nc1cc(Cl)c(Cl)cc1Cl)SCc1ccccc1	34.9 µM (inactive)	39.4 µM (inactive)	18.1	34.3 µM (inactive)	33.9 µM (inactive)	24.3 µM (inactive)	21.8 µM (inactive)	21 µM (inactive)	54.8 µM (inactive)	38.1 µM (inactive)	20.7 µM (inactive)	> 100 µM (inactive)	35.2 µM (inactive)	24.7 µM (inactive)	22.6 µM (inactive)	18.8 µM (inactive)	19.8 µM (inactive)		0.0129 µM (active)
O=C1CCC2(c3ccc(Cl)cc3)Nc3ccncc3N12 (centres undefined)		4.4 µM (inactive)	> 10	> 10 µM (inactive)	> 10 µM (inactive)	> 10 µM (inactive)	> 10 µM (inactive)			> 10 µM (inactive)		> 10 µM (inactive)	> 10 µM (inactive)	> 10 µM (inactive)		> 10 µM (inactive)	> 10 µM (inactive)	> 10 µM (inactive)	> 10 µM (inactive)
Cc1ccc(C)n1-c1ccccc1C1SCCCS1	> 100 µM (inactive)	> 100 µM (inactive)	> 100	> 100 µM (inactive)	> 100 µM (inactive)	> 100 µM (inactive)	> 100 µM (inactive)	> 100 µM (inactive)	> 100 µM (inactive)	> 100 µM (inactive)	> 100 µM (inactive)	> 100 µM (inactive)	> 100 µM (inactive)	> 100 µM (inactive)	> 100 µM (inactive)	16.9 µM (inactive)	> 100 µM (inactive)	> 100 µM (inactive)	
C/C=C/CC(C(=O)OCC)(N(C)C(=O)OC(C)(C)C)S(=O)(=O)c1ccc(C)cc1 (centres undefined)	68.1 µM (inactive)	> 100 µM (inactive)	61.9	> 100 µM (inactive)	68.7 µM (inactive)	57.7 µM (inactive)	> 100 µM (inactive)	52.8 µM (inactive)	> 100 µM (inactive)	> 100 µM (inactive)	88.7 µM (inactive)	> 100 µM (inactive)	56.5 µM (inactive)	> 100 µM (inactive)	> 100 µM (inactive)	45.3 µM (inactive)	48.2 µM (inactive)	22.1 µM (inactive)	
N#Cc1nc(C(CO)N(Cc2ccccc2)C(=O)O)oc1N (centres undefined)	> 100 µM (inactive)	> 100 µM (inactive)	> 100		> 100 µM (inactive)	12.4 µM (inactive)	> 100 µM (inactive)	> 100 µM (inactive)	> 100 µM (inactive)	> 100 µM (inactive)	> 100 µM (inactive)	> 100 µM (inactive)		> 100 µM (inactive)	> 100 µM (inactive)	> 100 µM (inactive)	> 100 µM (inactive)		> 100 µM (inactive)
O=C(NI1OC(=O)c2ccccc21)c1ccc(Cl)cc1	> 100 µM (inactive)	> 100 µM (inactive)	96.6		> 100 µM (inactive)	14.1 µM (inactive)	> 100 µM (inactive)	> 100 µM (inactive)	> 100 µM (inactive)	> 100 µM (inactive)	> 100 µM (inactive)	> 100 µM (inactive)	34.4 µM (inactive)	> 100 µM (inactive)	> 100 µM (inactive)	> 100 µM (inactive)	> 100 µM (inactive)		
CN(C)CCNC(=O)c1cccc2c(NC(CCCNC(=N)N)C(=O)O)c3ccccc3[n+](C)c12 (centres undefined)	38.9 µM (inactive)	70.1 µM (inactive)	> 100	> 100 µM (inactive)	59 µM (inactive)		> 100 µM (inactive)	> 100 µM (inactive)		29 µM (inactive)	40.1 µM (inactive)	32.4 µM (inactive)	53.5 µM (inactive)	> 100 µM (inactive)			> 100 µM (inactive)	61.5 µM (inactive)	> 100 µM (inactive)
O=C1CCC2(CC1)Cc1ccccc1C2O (centres undefined)	> 100 µM (inactive)	> 100 µM (inactive)	> 100	> 100 µM (inactive)	> 100 µM (inactive)	> 100 µM (inactive)				> 100 µM (inactive)	> 100 µM (inactive)	> 100 µM (inactive)	> 100 µM (inactive)	> 100 µM (inactive)	> 100 µM (inactive)	> 100 µM (inactive)	> 100 µM (inactive)	> 100 µM (inactive)	> 100 µM (inactive)
O=C(O)CCc1nc2cc3ccccc3cc2[nH]c1=O	> 100 µM (inactive)	> 100 µM (inactive)	> 100		> 100 µM (inactive)	> 100 µM (inactive)	> 100 µM (inactive)		> 100 µM (inactive)	> 100 µM (inactive)	> 100 µM (inactive)	> 100 µM (inactive)	> 100 µM (inactive)	> 100 µM (inactive)	> 100 µM (inactive)		> 100 µM (inactive)	> 100 µM (inactive)	> 100 µM (inactive)
CCP(=O)(OC)C1=CCN(C(=O)OCC[Si](C)(C)C)CC1 (centres undefined)	> 100 µM (inactive)	> 100 µM (inactive)	> 100	> 100 µM (inactive)	> 100 µM (inactive)	> 100 µM (inactive)	> 100 µM (inactive)	> 100 µM (inactive)	> 100 µM (inactive)	> 100 µM (inactive)	> 100 µM (inactive)		> 100 µM (inactive)	> 100 µM (inactive)	> 100 µM (inactive)	> 100 µM (inactive)	> 100 µM (inactive)	> 100 µM (inactive)	
COc1cc(C2SCC(=O)N2c2ccc(NC(=O)c3ccc(N4C(=O)CSC4c4cc(OC)c(OC)c(OC)c4)cc3)cc2)cc(OC)c1OC (centres undefined)	> 100 µM (inactive)	> 100 µM (inactive)	38.5	68.1 µM (inactive)	32.4 µM (inactive)	40.2 µM (inactive)	37.1 µM (inactive)	28.9 µM (inactive)	58.6 µM (inactive)	81.3 µM (inactive)	46.3 µM (inactive)	> 100 µM (inactive)	36.9 µM (inactive)	> 100 µM (inactive)	> 100 µM (inactive)		33 µM (inactive)	23.1 µM (inactive)	
Nc1ccc(-c2cssc2=S)cc1	42.2 µM (inactive)		45.5	36.3 µM (inactive)	50.7 µM (inactive)	26.9 µM (inactive)		0.836 µM (active)	29.8 µM (inactive)	42.7 µM (inactive)	32.8 µM (inactive)	31.1 µM (inactive)	54.8 µM (inactive)	40.6 µM (inactive)	37.9 µM (inactive)	18.6 µM (inactive)	42 µM (inactive)	30.4 µM (inactive)	2.64 µM (inactive)
N#CCCN(CCCN(C(=O)Nc1ccccc1)c1ccccc1)C(=O)Nc1ccccc1	> 100 µM (inactive)	> 100 µM (inactive)	> 100		> 100 µM (inactive)	> 100 µM (inactive)	> 100 µM (inactive)	53 µM (inactive)	46.5 µM (inactive)		> 100 µM (inactive)	> 100 µM (inactive)	> 100 µM (inactive)	> 100 µM (inactive)	15 µM (inactive)	27.2 µM (inactive)	87.9 µM (inactive)	> 100 µM (inactive)	> 100 µM (inactive)
